According to US20120029187A1, “HALOALKYLSULFONANILIDE DERIVATIVE” (Nissan Chemical Industries, Ltd., priority 2009, published 2012):

Assays:
Assay type in all cases: in vivo
transplanted rice = test: Test Example 1: preemergence treatment under submerged conditions, effect on crop; settings: dose 2.52 g/a
Outline: (§1)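 Alluvial soil flooded to 4 cm depth; barnyardgrass, bulrush and ducksalad sown and 2.5-leaf rice seedlings transplanted. Same day, water-diluted emulsifiable concentrates applied to the water surface at set doses (g/a). Kept at 25–30 °C in greenhouse; effects scored 0–5 by mortality after three weeks.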

barnyardgrass [1] = test: Test Example 2: herbicidal effects during the vegetation period under submerged conditions; settings: treatment during the vegetation period under submerged conditions; dose 2.52 g/a
Outline: (§2)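 Barnyardgrass, bulrush and ducksalad were co-sown in alluvial soil flooded to 4 cm and grown in a greenhouse at 25 to 30° C. At the 1- or 2-leaf stage, water-diluted emulsifiable concentrates went onto the water surface at set doses (g/a). Herbicidal effect was scored three weeks later on a graded scale.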

ducksalad [2] = test: as above; settings: treatment during the vegetation period under submerged conditions; dose 2.52 g/a
Outline: as §2

bulrush [3] = test: as above; settings: treatment during the vegetation period under submerged conditions; dose 2.52 g/a
Outline: as §2

barnyardgrass [4] = test: Test Example 1: herbicidal effects in preemergence treatment under submerged conditions; settings: dose 2.52 g/a
Outline: as §1

ducksalad [5] = test: as above; settings: dose 2.52 g/a
Outline: as §1

bulrush [6] = test: as above; settings: dose 2.52 g/a
Outline: as §1

redroot pigweed [7] = test: Test Example 3: herbicidal effects in soil treatment; settings: dose 3.2 g/a
Outline: (§3)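 Seeds were sown in sterilized diluvial soil and covered with about 1.5 cm of soil. Compounds, formulated as emulsifiable concentrates and diluted with water, were sprayed evenly over the soil surface at set doses in g/a. Herbicidal effect was scored on a rating scale three weeks later.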

beadstraw [8] = test: as above; settings: dose 3.2 g/a
Outline: as §3

common lambsquater [9] = test: as above; settings: dose 3.2 g/a
Outline: as §3

posumbu knotweed [10] = test: as above; settings: dose 3.2 g/a
Outline: as §3

barnyardgrass [11] = test: as above; settings: dose 3.2 g/a
Outline: as §3

Italian ryegrass [12] = test: as above; settings: dose 3.2 g/a
Outline: as §3

common chickweed [13] = test: as above; settings: dose 3.2 g/a
Outline: as §3

common ragweed [14] = test: as above; settings: dose 3.2 g/a
Outline: as §3

velvetleaf [15] = test: as above; settings: dose 3.2 g/a
Outline: as §3

water foxtail [16] = test: as above; settings: dose 3.2 g/a
Outline: as §3

large crabgrass [17] = test: as above; settings: dose 3.2 g/a
Outline: as §3

giant foxtail [18] = test: as above; settings: dose 3.2 g/a
Outline: as §3

redroot pigweed [19] = test: Test Example 4: herbicidal effect in foliage treatment; settings: dose 3.2 g/a, three weeks after the application
Outline: (§4)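 Doses are given in grams per are of applied compound, sprayed as water-diluted emulsifiable concentrate onto foliage of 14-day-old plants grown at 25 to 30° C. Herbicidal activity was assessed visually on a rating scale after three weeks.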

beadstraw [20] = test: as above; settings: dose 3.2 g/a, three weeks after the application
Outline: as §4

common lambsquater [21] = test: as above; settings: dose 3.2 g/a, three weeks after the application
Outline: as §4

posumbu knotweed [22] = test: as above; settings: dose 3.2 g/a, three weeks after the application
Outline: as §4

barnyardgrass [23] = test: as above; settings: dose 3.2 g/a, three weeks after the application
Outline: as §4

Italian ryegrass [24] = test: as above; settings: dose 3.2 g/a, three weeks after the application
Outline: as §4

common chickweed [25] = test: as above; settings: dose 3.2 g/a, three weeks after the application
Outline: as §4

common ragweed [26] = test: as above; settings: dose 3.2 g/a, three weeks after the application
Outline: as §4

velvetleaf [27] = test: as above; settings: dose 3.2 g/a, three weeks after the application
Outline: as §4

water foxtail [28] = test: as above; settings: dose 3.2 g/a, three weeks after the application
Outline: as §4

large crabgrass [29] = test: as above; settings: dose 3.2 g/a, three weeks after the application
Outline: as §4

giant foxtail [30] = test: as above; settings: dose 3.2 g/a, three weeks after the application
Outline: as §4

CCC1CON(Cc2ccccc2NS(=O)(=O)C(F)(F)F)C(=O)O1 (stereo not shown) [III-5]
a: transplanted rice, effect on crop (evaluation scale 0-5) (transplanted rice): 0 (mortality of less than 5% (almost ineffective))
A: barnyardgrass, herbicidal effect (evaluation scale 0-5) (barnyardgrass [1]): 5 (mortality of 90% or above (nearly complete death))
C: ducksalad, herbicidal effect (evaluation scale 0-5) (ducksalad [2]): 5 (mortality of 90% or above (nearly complete death))
B: bulrush, herbicidal effect (evaluation scale 0-5) (bulrush [3]): 5 (mortality of 90% or above (nearly complete death))
A: barnyardgrass, herbicidal effect (evaluation scale 0-5) (barnyardgrass [4]): 5 (mortality of 90% or above (nearly complete death))
C: ducksalad, herbicidal effect (evaluation scale 0-5) (ducksalad [5]): 5 (mortality of 90% or above (nearly complete death))
B: bulrush, herbicidal effect (evaluation scale 0-5) (bulrush [6]): 5 (mortality of 90% or above (nearly complete death))
herbicidal effect, K: redroot pigweed (redroot pigweed [7]): 0 (mortality of less than 5% (almost ineffective))
herbicidal effect, O: beadstraw (beadstraw [8]): 4 (mortality of at least 70% and less than 90%)
herbicidal effect, L: common lambsquater (common lambsquater [9]): 5 (mortality of 90% or above (nearly complete death))
herbicidal effect, M: posumbu knotweed (posumbu knotweed [10]): 4 (mortality of at least 70% and less than 90%)
herbicidal effect, A: barnyardgrass (barnyardgrass [11]): 5 (mortality of 90% or above (nearly complete death))
herbicidal effect, H: Italian ryegrass (Italian ryegrass [12]): 5 (mortality of 90% or above (nearly complete death))
herbicidal effect, N: common chickweed (common chickweed [13]): 5 (mortality of 90% or above (nearly complete death))
herbicidal effect, J: common ragweed (common ragweed [14]): 4 (mortality of at least 70% and less than 90%)
herbicidal effect, I: velvetleaf (velvetleaf [15]): 5 (mortality of 90% or above (nearly complete death))
herbicidal effect, G: water foxtail (water foxtail [16]): 5 (mortality of 90% or above (nearly complete death))
herbicidal effect, D: large crabgrass (large crabgrass [17]): 5 (mortality of 90% or above (nearly complete death))
herbicidal effect, E: giant foxtail (giant foxtail [18]): 5 (mortality of 90% or above (nearly complete death))
K: redroot pigweed, herbicidal effect (redroot pigweed [19]): 0 (mortality of less than 5% (almost ineffective))
O: beadstraw, herbicidal effect (beadstraw [20]): 3 (mortality of at least 40% and less than 70%)
L: common lambsquater, herbicidal effect (common lambsquater [21]): 3 (mortality of at least 40% and less than 70%)
M: posumbu knotweed, herbicidal effect (posumbu knotweed [22]): 0 (mortality of less than 5% (almost ineffective))
A: barnyardgrass, herbicidal effect (barnyardgrass [23]): 5 (mortality of 90% or above (nearly complete death))
H: Italian ryegrass, herbicidal effect (Italian ryegrass [24]): 1 (mortality of at least 5% and less than 20%)
N: common chickweed, herbicidal effect (common chickweed [25]): 3 (mortality of at least 40% and less than 70%)
J: common ragweed, herbicidal effect (common ragweed [26]): 4 (mortality of at least 70% and less than 90%)
I: velvetleaf, herbicidal effect (velvetleaf [27]): 3 (mortality of at least 40% and less than 70%)
G: water foxtail, herbicidal effect (water foxtail [28]): 5 (mortality of 90% or above (nearly complete death))
D: large crabgrass, herbicidal effect (large crabgrass [29]): 0 (mortality of less than 5% (almost ineffective))
E: giant foxtail, herbicidal effect (giant foxtail [30]): 3 (mortality of at least 40% and less than 70%)
